Source: patent publication US7045515B2, “β-lactam compounds process for reproducing the same and serum cholesterol-lowering agents containing the same” (Kotobuki Pharmaceutical Co., Ltd., priority 2001, dated 2006)
Where two headings read alike, the source gives them in different places.

Columns and labels:
[1] = tested on: hypercholesterolemic hamster; experiment: Hypocholesterolemic activity in hamsters fed a 0.5%-cholesterol diet; assay type: in vivo; settings: Mesocricetus auratus, po, negative = hypocholesterolemic action, read-out: Serum cholesterol (%); for change in vivo at 3 mg/kg: 3 mg/kg orally daily; for change in vivo at 10 mg/kg: 10 mg/kg orally daily; for change in vivo at 0.3 mg/kg: 0.3 mg/kg orally daily; for change in vivo at 20 mg/kg: 20 mg/kg orally daily
Description: [Hypocholesterolemic Agents Using the Hypercholesterolemic Hamster]
Hamsters were derived into groups with 3 animals per group and fed a 0.5%-cholesterol containing CE-2 diet (CLEA Japan Inc.) for 4 or 7 days. The normal dietary group were fed a standard CE-2 during the experiment. Each compound or vehicle (0.2 mL of corn oil) per 100 g body weight was orally administered daily for 4 or 7 days from the day that high-cholesterol diet was started. At 20 hr after the final administration, blood samples were collected from the abdominal aorta of non-fasted animals under anesthesia with diethylether. Serum cholesterol was measured by enzymatic method using cholesterol E-test wako (Wako Pure Chemical Industries). Activity of the test compounds is expressed as percent reduction of the test compound on the basis of comparison with rised total cholesterol treated only with no-treatment-high-cholesterol diet. The test compounds with the optical rotation value in the compounds 1–58 were evaluated as the chiral compounds.

[2] = 96 h, dosage day 4, changed percent
[3] = 168 h, dosage day 7, changed percent vs rise in total cholesterol on high-cholesterol diet

Row | Compound | melting point [°C] | also measured
1 | Cc1ccc(N2C(=O)[C@H](CCC(=O)c3ccc(F)cc3)[C@H]2c2ccc(C[C@@H]3O[C@H](CO)[C@@H](O)[C@H](O)[C@H]3O)cc2)cc1 [Compound 28, (4S,3R)-4-(4-{[(2S,5S,3R,4R,6R)-3,4,5-Trihydroxy-6-(hydroxymethyl)perhydro-2H-pyran-2-yl]methyl}phenyl)-1-(4-methylphenyl)-3-[3-(4-fluorophenyl)-3-oxopropyl]azetidine-2-one] | 86 to 88 | change in vivo at 3 mg/kg [1, 3]: -130%
2 | Cc1ccc(N2C(=O)[C@H](CC[C@H](O)c3ccc(F)cc3)[C@H]2c2ccc(C[C@@H]3O[C@H](CO)[C@@H](O)[C@H](O)[C@H]3O)cc2)cc1 [Compound 24, (4S,3R)-3-[(3S)-3-(4-Fluorophenyl)-3-hydroxypropyl]-4-(4-{[(2S,5S,3R,4R,6R)-3,4,5-trihydroxy-6-(hydroxymethyl)perhydro-2H-pyran-2-yl]methyl}phenyl)-1-(4-methylphenyl)azetidine-2-one] | 102 to 104 | change in vivo at 3 mg/kg [1, 3]: -156%
3 | O=C1[C@H](CC[C@H](O)c2ccc(F)cc2)[C@@H](c2ccc(C[C@@H]3O[C@H](CO)[C@@H](O)[C@H](O)[C@H]3O)cc2)N1c1ccccc1 [Compound 23, (4S,3R)-3-[(3S)-3-(4-Fluorophenyl)-3-hydroxypropyl]-4-(4-{[(2S,5S,3R,4R,6R)-3,4,5-trihydroxy-6-(hydroxymethyl)perhydro-2H-pyran-2-yl]methyl}phenyl)-1-phenylazetidine-2-one] | 104 to 106 | change in vivo at 3 mg/kg [1, 3]: -177%
4 | O=C1[C@H](CCCc2ccc(F)cc2)[C@@H](c2ccc(C[C@@H]3O[C@H](CO)[C@@H](O)[C@H](O)[C@H]3O)cc2)N1c1ccc(F)cc1 (relative stereo) [Compound 2, (4S*,3R*)-4-(4-{[(2S,5S,3R,4R,6R)-3,4,5-Trihydroxy-6-(hydroxymethyl)perhydro-2H-pyran-2-yl]methyl}phenyl)-1-(4-fluorophenyl)-3-[3-(4-fluorophenyl)propyl]azetidine-2-one] | 110 to 112 | change in vivo at 3 mg/kg [1, 3]: -120%
5 | CC(=O)OC[C@H]1O[C@@H](Cc2ccc([C@@H]3[C@@H](CCOc4ccc(F)cc4)C(=O)N3c3ccc(F)cc3)cc2)[C@H](OC(C)=O)[C@@H](OC(C)=O)[C@@H]1OC(C)=O (relative stereo) [Compound 13, (3S,2R,4R,5R,6R)-2-[(4-{(4S*,3R*)-1-(4-Fluorophenyl)-3-[2-(4-fluorophenoxy)ethyl]-2-oxoazetidine-4-yl}phenyl)methyl]-4,5-diacetyloxy-6-(acetoxymethyl)perhydro-2H-pyran-3-ylacetate] | 64 to 66 | change in vivo at 20 mg/kg [1, 2]: -28%
6 | O=C1[C@H](CCOc2ccc(F)cc2)[C@@H](c2ccc(OCC3O[C@H](CO)[C@@H](O)[C@H](O)[C@H]3O)cc2)N1c1ccc(F)cc1 (relative stereo) [Compound 15, (4S*,3R*)-4-(4-{[(4S,5S,2R,3R,6R)-3,4,5-Trihydroxy-6-(hydroxymethyl)perhydro-2H-pyran-2-yl]methoxy}phenyl)-1-(4-fluorophenyl)-3-[2-(4-fluorophenoxy)ethyl]azetidine-2-one] | 64 to 65 | change in vivo at 20 mg/kg [1, 2]: -21%
7 | O=C(O)[C@H]1O[C@@H](Cc2ccc([C@@H]3[C@@H](CC[C@H](O)c4ccc(F)cc4)C(=O)N3c3ccc(F)cc3)cc2)[C@H](O)[C@@H](O)[C@@H]1O [Compound 33] | 82 to 84 | change in vivo at 3 mg/kg [1, 2]: -67%
8 | O=C1[C@H](CC[C@H](O)c2ccc(F)cc2)[C@@H](c2ccc(C[C@@H]3O[C@H](CO)[C@@H](O)[C@H](O)[C@H]3O)cc2)N1c1ccc(F)cc1 [Compound 22, (4S,3R)-3-[(3S)-3-(4-Fluorophenyl)-3-hydroxypropyl]-4-(4-{[(2S,5S,3R,4R,6R)-3,4,5-trihydroxy-6-(hydroxymethyl)perhydro-2H-pyran-2-yl]methyl}phenyl)-1-(4-fluorophenyl)azetidine-2-one] | 115 to 117 | 
9 | O=C(O)c1ccc(N2C(=O)[C@H](CCC(=O)c3ccc(F)cc3)[C@H]2c2ccc(C[C@@H]3O[C@H](CO)[C@@H](O)[C@H](O)[C@H]3O)cc2)cc1 [Compound 30, 4-[(4S,3R)-4-(4-{[(2S,5S,3R,4R,6R)-3,4,5-Trihydroxy-6-(hydroxymethyl)perhydro-2H-pyran-2-yl]methyl}phenyl)-3-[3-(4-fluorophenyl)-3-oxopropyl]-2-oxoazetidinyl]benzoic acid] | 102 to 104 | 
10 | O=C(CC[C@H]1C(=O)N(c2ccc(F)cc2)[C@@H]1c1ccc(C[C@@H]2O[C@H](CO)[C@@H](O)[C@H](O)[C@H]2O)cc1)c1ccc(F)cc1 [Compound 26, (4S,3R)-4-(4-{[(2S,5S,3R,4R,6R)-3,4,5-Trihydroxy-6-(hydroxymethyl)perhydro-2H-pyran-2-yl]methyl}phenyl)-1-(4-fluorophenyl)-3-[3-(4-fluorophenyl)-3-oxopropyl]azetidine-2-one] | 78 to 80 | 
11 | O=C1[C@H](CCCc2ccc(F)cc2)[C@@H](c2ccc(CC3O[C@H](CO)[C@@H](O)[C@H](O)[C@H]3O)cc2)N1c1ccc(F)cc1 (stereo in doubt) [Compound 25, (4S,3R)-4-(4-{[(5S,2R,3R,4R,6R)-3,4,5-Trihydroxy-6-(hydroxymethyl)perhydro-2H-pyran-2-yl)methyl}phenyl)-1-(4-fluorophenyl)-3-[3-(4-fluorophenyl)propyl]azetidine-2-one] | 67 to 69 | 

Further lines, with some results ahead:

Row | melting point [°C] | Compound | also measured
12 | 153 to 155 | O=C1[C@H](CC[C@H](O)c2ccc(F)cc2)[C@@H](c2ccc(CC[C@@H]3O[C@H](CO)[C@@H](O)[C@H](O)[C@H]3O)cc2)N1c1ccc(F)cc1 [Compound 46, (4S,3R)-3-[(3S)-3-(4-Fluorophenyl)-3-hydroxypropyl]4-(4-([(2S,5S,3R,4R,6R)-3,4,5-trihydroxy-6-(hydroxymethyl)perhydro-2H-pyran-2-yl]ethyl}phenyl)-1-(4-fluorophenyl)azetidine-2-one] | change in vivo at 3 mg/kg [1, 2]: -147%
13 | 200 to 201 | O=C1[C@H](CC[C@H](O)c2ccc(F)cc2)[C@@H](c2ccc(F)cc2)N1c1ccc(C[C@@H]2O[C@H](CO)[C@@H](O)[C@H](O)[C@H]2O)cc1 [Compound 38, (4S,3R)-3-[(3S)-3-(4-Fluorophenyl)-3-hydroxypropyl]-1-(4-{[(2S,5S,3R,4R,6R)-3,4,5-trihydroxy-6-(hydroxymethyl)perhydro-2H-pyran-2-yl]methyl}phenyl)-1-(4-fluorophenyl)azetidine-2-one] | change in vivo at 10 mg/kg [1, 2]: -2%
14 | 111 to 113 | O=C1[C@H](CC[C@H](O)c2ccc(C3OC(CO)C(O)C(O)C3O)cc2)C(c2ccc(F)cc2)N1c1ccc(F)cc1 (stereo in doubt) [Compound 49, 3-((3S)-(4-[(2S,5S,3R,4R,6R)-3,4,5-Trihydroxy-6-(hydroxymethyl)perhydro-2H-pyran-2-yl]phenyl}-3-hydroxypropyl)(4S,3R)-1,4-bis(4-fluorophenyl)azetidine-2-one] | change in vivo at 10 mg/kg [1, 2]: -55%
15 | 116 to 118 | Cc1ccc(N2C(=O)[C@H](CC[C@H](O)c3ccc(F)cc3)[C@H]2c2ccc(CC[C@@H]3O[C@H](CO)[C@@H](O)[C@H](O)[C@H]3O)cc2)cc1 [Compound 57] | change in vivo at 0.3 mg/kg [1, 2]: -81.3%
16 | 84 to 86 | O=C1[C@H](CC[C@H](O)c2ccc(F)cc2)[C@@H](c2ccc(/C=C/[C@@H]3O[C@H](CO)[C@@H](O)[C@H](O)[C@H]3O)cc2)N1c1ccc(F)cc1 [Compound 45, (4S,3R)-3-[(3S)-3-(4-Fluorophenyl)-3-hydroxypropyl]4-(4-{[(2S,5S,3R,4R,6R)-3,4,5-trihydroxy-6-(hydroxymethyl)perhydro-2H-pyran-2-yl]ethene}phenyl)-1-(4-fluorophenyl)azetidine-2-one] | change in vivo at 3 mg/kg [1, 2]: -136%
17 | 82 to 84 | O=C1[C@H](CC[C@H](O)c2ccc(F)cc2)[C@@H](c2ccc(CC[C@@H]3O[C@H](CO)[C@@H](O)[C@H](O)[C@H]3O)cc2)N1c1ccccc1 [Compound 56] | change in vivo at 0.3 mg/kg [1, 2]: -84%
18 | 84 to 86 | O=C1[C@H](CCCc2ccccc2)[C@@H](c2ccc(C[C@@H]3O[C@H](CO)[C@@H](O)[C@H](O)[C@H]3O)cc2)N1c1ccccc1 [Compound 44, 3-(3-Phenylpropyl)(4S,3R)-4-(4-{[(5S,3R,4R,6R)-3,4,5-trihydroxy-6-(hydroxymethyl)perhydro-2H-pyran-2-yl]methyl}phenyl)-1-phenylazetidine-2-one] | 
19 | 79 to 81 | O=C1[C@H](CC[C@H](O)c2ccc(F)cc2)[C@@H](c2ccc(/C=C/CC[C@@H]3O[C@H](CO)[C@@H](O)[C@H](O)[C@H]3O)cc2)N1c1ccc(F)cc1 [Compound 52] | 
